Values after ≈ are worked out from the molar mass of the structure shown. Like-named read-outs stand apart in the source and are kept apart here.
Tests used:
[1] = tested on: S. aureus vancomycin-intermediates (VISA) Met-R strains; assay: MIC determination (NCCLS broth microdilution), VISA Met-R strains; format: cell-based, Staphylococcus aureus; details: for MIC: antibiotype Oxa, Cip, Clin, Ery
Method: (§1) The MICs of thiamphenicol and of other antibiotics was obtained by using the method proposed by NCCLS (National Committee for Clinical Laboratory Standards, 1999).
(§2) Various antibiotic concentrations were added to bacteria in exponental growth (final inoculum 5×10^5 […]); dilution in Mb (cation-supplemented Mueller-Hinton broth) and distribution on a microplate by using an automatic diluting machine Biomek 1000 (Beckman, USA). MHb charged with 2% NaCl was used to test the methicillin activity.
(§3) The antibiotic concentration which hinders a visible growth after 18-24 hours of incubation at 37° C., was registered as MIC.
(§4) S. aureus ATCC 29213 was used as quality control strain.

[2] = tested on: S. aureus Met-R multiresistant strains; assay: MIC determination (NCCLS broth microdilution), methicillin-resistant multiresistant S. aureus strains; format: cell-based, Staphylococcus aureus; details: Staphylococcus aureus; for MIC: antibiotype Oxa, Ery, read-out: MIC
Method: as §1, §2, §3, §4

[3] = Staphylococcus aureus, Strain 51 VISA, read-out: MIC
[4] = Strain 30, Cip, Clin, Gm, SXT, Dox
[5] = Strain 32, Cip, Clin, Gm, SXT, Rif
[6] = Strain 44, Cip, Clin, Gm, Rif, Dox
[7] = Strain 45, Cip, Clin, Gm, Rif, Dox, Fos
[8] = Strain 50, Cip, Clin, Gm, Rif, Dox

COc1cccc(OC)c1C(=O)N[C@@H]1C(=O)N2[C@@H]1SC(C)(C)[C@@H]2C(=O)O [Meth, methicilline]
MIC [1, 3]: > 64 µg/mL
MIC ([1]; Strain 52 VISA): >64 µg/mL
MIC ([2]; Strain 1, Cip, Clin, Gm): > 64 µg/mL
MIC ([2]; Strain 2, Clin, Fos): > 64 µg/mL
MIC ([2]; Strain 3, Cip, Clin, Gm): > 64 µg/mL
MIC ([2]; Strain 4, Cip, Gm): > 64 µg/mL
MIC ([2]; Strain 5, Cip, Clin): > 64 µg/mL
MIC ([2]; Strain 6, Clin, Gm): > 64 µg/mL
MIC ([2]; Strain 7, Cip, Gm): 32 µg/mL (≈ 84.1 µM)
MIC ([2]; Strain 8, Cip, Clin): > 64 µg/mL
MIC ([2]; Strain 9, Cip, Clin, Gm): > 64 µg/mL
MIC ([2]; Strain 10, Cip, Clin, Gm): > 64 µg/mL
MIC ([2]; Strain 11, Clin, Rif): > 64 µg/mL
MIC ([2]; Strain 12, Cip, Clin): > 64 µg/mL
MIC ([2]; Strain 13, Cip, Clin): > 64 µg/mL
MIC ([2]; Strain 14, Clin, Cip): > 64 µg/mL
MIC ([2]; Strain 15, Cip, Clin, Gm): > 64 µg/mL
MIC ([2]; Strain 16, Cip, Clin): > 64 µg/mL
MIC ([2]; Strain 17, Cip, Clin): 64 µg/mL (≈ 168 µM)
MIC ([2]; Strain 18, Cip, Clin, Gm): > 64 µg/mL
MIC ([2]; Strain 19, Cip, Clin, Gm): > 64 µg/mL
MIC ([2]; Strain 20, Cip, Clin, Gm): > 64 µg/mL
MIC ([2]; Strain 21, Cip, Clin, Gm): > 64 µg/mL
MIC ([2]; Strain 22, Cip, Clin): > 64 µg/mL
MIC ([2]; Strain 23, Cip, Clin, Gm): > 64 µg/mL
MIC ([2]; Strain 24, Cip, Clin, Gm): > 64 µg/mL
MIC ([2]; Strain 25, Cip, Clin, Gm): > 64 µg/mL
MIC ([2]; Strain 26, Cip, Clin, Fos, Gm): > 64 µg/mL
MIC ([2]; Strain 27, Cip, Clin, Fos, Gm): > 64 µg/mL
MIC ([2]; Strain 28, Cip, Clin, Gm): > 64 µg/mL
MIC ([2]; Strain 29, Clin, Fos): > 64 µg/mL
MIC [2, 4]: 64 µg/mL (≈ 168 µM)
MIC ([2]; Strain 31, Cip, Clin, Fox, Gm): > 64 µg/mL
MIC [2, 5]: > 64 µg/mL
MIC ([2]; Strain 33, Cip, Clin, Gm): > 64 µg/mL
MIC ([2]; Strain 34, Cip, Clin, Gm): > 64 µg/mL
MIC ([2]; Strain 35, Cip, Clin, Gm): > 64 µg/mL
MIC ([2]; Strain 36, Cip, Clin, Fos): > 64 µg/mL
MIC ([2]; Strain 37, Cip, Clin, Fos, Gm): 64 µg/mL (≈ 168 µM)
MIC ([2]; Strain 38, Cip, Gm): > 64 µg/mL
MIC ([2]; Strain 39, Cip, Clin, Fos, Gm): 64 µg/mL (≈ 168 µM)
MIC ([2]; Strain 40, Cip, Clin, Gm): > 64 µg/mL
MIC ([2]; Strain 41, Cip, Clin): > 64 µg/mL
MIC ([2]; Strain 42, Cip, Clin, Gm): > 64 µg/mL
MIC ([2]; Strain 43, Cip, Clin, Gm): > 64 µg/mL
MIC [2, 6]: 64 µg/mL (≈ 168 µM)
MIC [2, 7]: > 64 µg/mL
MIC ([2]; Strain 46, Clin, Fos): > 64 µg/mL
MIC ([2]; Strain 47, Cip, Clin, Gm): > 64 µg/mL
MIC ([2]; Strain 48, Cip, Clin): 64 µg/mL (≈ 168 µM)
MIC ([2]; Strain 49, Cip, Gm): > 64 µg/mL
MIC [2, 8]: > 64 µg/mL

CC[C@H]1OC(=O)[C@H](C)[C@@H](O[C@H]2C[C@@](C)(OC)[C@@H](O)[C@H](C)O2)[C@H](C)[C@@H](O[C@@H]2O[C@H](C)C[C@H](N(C)C)[C@H]2O)[C@](C)(O)C[C@@H](C)C(=O)[C@H](C)[C@@H](O)[C@]1(C)O [Erythromycin, erythromycin]
MIC [1, 3]: > 64 µg/mL
MIC ([1]; Strain 52 VISA): >64 µg/mL
MIC Range ([1]; VISA (2) Met-R): >64 µg/mL
MIC ([2]; Strain 1, Cip, Clin, Gm): > 64 µg/mL
MIC ([2]; Strain 2, Clin, Fos): > 64 µg/mL
MIC ([2]; Strain 3, Cip, Clin, Gm): > 64 µg/mL
MIC ([2]; Strain 4, Cip, Gm): > 64 µg/mL
MIC ([2]; Strain 5, Cip, Clin): > 64 µg/mL
MIC ([2]; Strain 6, Clin, Gm): > 64 µg/mL
MIC ([2]; Strain 7, Cip, Gm): > 64 µg/mL
MIC ([2]; Strain 8, Cip, Clin): > 64 µg/mL
MIC ([2]; Strain 9, Cip, Clin, Gm): > 64 µg/mL
MIC ([2]; Strain 10, Cip, Clin, Gm): > 64 µg/mL
MIC ([2]; Strain 11, Clin, Rif): > 64 µg/mL
MIC ([2]; Strain 12, Cip, Clin): > 64 µg/mL
MIC ([2]; Strain 13, Cip, Clin): > 64 µg/mL
MIC ([2]; Strain 14, Clin, Cip): > 64 µg/mL
MIC ([2]; Strain 15, Cip, Clin, Gm): > 64 µg/mL
MIC ([2]; Strain 16, Cip, Clin): > 64 µg/mL
MIC ([2]; Strain 17, Cip, Clin): > 64 µg/mL
MIC ([2]; Strain 18, Cip, Clin, Gm): > 64 µg/mL
MIC ([2]; Strain 19, Cip, Clin, Gm): > 64 µg/mL
MIC ([2]; Strain 20, Cip, Clin, Gm): > 64 µg/mL
MIC ([2]; Strain 21, Cip, Clin, Gm): > 64 µg/mL
MIC ([2]; Strain 22, Cip, Clin): > 64 µg/mL
MIC ([2]; Strain 23, Cip, Clin, Gm): > 64 µg/mL
MIC ([2]; Strain 24, Cip, Clin, Gm): > 64 µg/mL
MIC ([2]; Strain 25, Cip, Clin, Gm): > 64 µg/mL
MIC ([2]; Strain 26, Cip, Clin, Fos, Gm): > 64 µg/mL
MIC ([2]; Strain 27, Cip, Clin, Fos, Gm): > 64 µg/mL
MIC ([2]; Strain 28, Cip, Clin, Gm): > 64 µg/mL
MIC ([2]; Strain 29, Clin, Fos): > 64 µg/mL
MIC [2, 4]: > 64 µg/mL
MIC ([2]; Strain 31, Cip, Clin, Fox, Gm): > 64 µg/mL
MIC [2, 5]: > 64 µg/mL
MIC ([2]; Strain 33, Cip, Clin, Gm): > 64 µg/mL
MIC ([2]; Strain 34, Cip, Clin, Gm): > 64 µg/mL
MIC ([2]; Strain 35, Cip, Clin, Gm): > 64 µg/mL
MIC ([2]; Strain 36, Cip, Clin, Fos): > 64 µg/mL
MIC ([2]; Strain 37, Cip, Clin, Fos, Gm): 64 µg/mL (≈ 87.2 µM)
MIC ([2]; Strain 38, Cip, Gm): > 64 µg/mL
MIC ([2]; Strain 39, Cip, Clin, Fos, Gm): 64 µg/mL (≈ 87.2 µM)
MIC ([2]; Strain 40, Cip, Clin, Gm): > 64 µg/mL
MIC ([2]; Strain 41, Cip, Clin): > 64 µg/mL
MIC ([2]; Strain 42, Cip, Clin, Gm): > 64 µg/mL
MIC ([2]; Strain 43, Cip, Clin, Gm): > 64 µg/mL
MIC [2, 6]: > 64 µg/mL
MIC [2, 7]: > 64 µg/mL
MIC ([2]; Strain 46, Clin, Fos): > 64 µg/mL
MIC ([2]; Strain 47, Cip, Clin, Gm): > 64 µg/mL
MIC ([2]; Strain 48, Cip, Clin): > 64 µg/mL
MIC ([2]; Strain 49, Cip, Gm): > 64 µg/mL
MIC [2, 8]: > 64 µg/mL
MIC50 ([2]; S. aureus (50) Met-R, read-out: MIC 50%): > 64 µg/mL
MIC90 ([2]; S. aureus (50) Met-R, read-out: MIC 90%): > 64 µg/mL
